Assay results reported in publication PMC10113214 (Scientific Reports, 2023).

Columns and labels:
46BR.1N fibroblasts = test: LDH cytotoxicity assay, 46BR.1N; type: cell-based, human; conditions: 150 µg/ml, 48 h, 3 independent experiments, n = 12
Procedure: (§1) Human HaCaT keratinocytes (DKFZ, Heidelberg, Germany)[47],[48], the human dermal fibroblast 46BR.1N cell line (ECACC, Sigma Aldrich Co.) and human primary dermal fibroblasts used in this study were routinely cultured in culture flasks (growth surface area: 25 cm^2) in DMEM-HG medium supplemented with 10% fetal bovine serum, 100 U/mL penicillin and […] streptomycin under standard conditions.
(§2) Briefly, the HaCaT and 46BR.1N cells were seeded in 96-well plates at a density of 5000 per well. Cell stimulation with RADA derivatives was performed using a protocol described before[49],[50]. Both assays were performed according to the manufacturers’ instructions (XTT- Roche, Cat. No. 11465015001; LDH- Takara, Cat. No. MK401).

Rheology of hydrogels = type: physicochemical; conditions: 1% hydrogel, 37 °C
Procedure: Rheological parameters of the hydrogels were identified using an MCR 302 rheometer (Anton Paar GmbH, Graz, Austria). The rheometer was equipped with a CP50-1 stainless steel cone-and-plate system of 50 mm diameter, 1° cone angle and 50 µm cone truncation and a Peltier controlled temperature unit. An aliquot of 900 µL of 1% hydrogel was applied to a plate cone. The linear viscoelastic (LVE) region was determined through an amplitude sweeps: shear strain (0.01–100% at 6 rad s^−1) and shear stress (0.001–10 Pa at 6.28 rad s^−1). Frequency sweep were measured from 0.01 to 100 rad s^−1 at 2.5% strain. The frequency dependence of the storage modulus (G’) and loss modulus (G”) of the hydrogels were measured at 37 °C. All experiments were carried out in triplicate and reported as the mean of three repeats.

[1] = system: human primary dermal fibroblasts; type: cell-based
Procedure: Skin samples were obtained from patients of the Oncological Surgery Clinic in the Medical University of Gdańsk. The procedure was approved by the Independent Bioethics Commission for Research of the Medical University of Gdańsk (NKBBN/387/2014) and written informed consent was obtained from patients prior to surgery. All experiments were performed in accordance with guidelines and regulations. The isolation of fibroblasts was performed by explant culture as previously described. Briefly, skin samples were cut into small pieces, and the epidermis was removed by dispase digestion. To allow cells to grow out from the tissue samples, the human dermis was placed in 6-well plates in DMEM-HG medium (Sigma Aldrich Co., cat. D6429) supplemented with 10% of FBS (fetal bovine serum, Sigma-Aldrich Co., F9665), 100 U/mL of penicillin and 100 μg/mL streptomycin, and placed under standard conditions (humidified atmosphere with 5% CO2 at 37 °C). The medium was changed every 2–3 days.
RADA peptides were dissolved in water at a concentration of 1.0%, placed in culture inserts (0.4 μm) in 24-well plates, and incubated for at least 1 h at 37 °C to allow gelation. […] After 3 days of incubation, cells were stained with carboxyfluorescein succinimidyl ester (CFSE) (10 μM) and propidium iodide (100 µM) for 3 min. and then analyzed by fluorescence microscopy to assess their viability.

[2] = system: full-thickness excisional dorsal skin wounds; test: Skin wound healing model in mice; type: in vivo, BALB/c mice
Procedure: Eight to ten-week-old BALB/c female mice were used for these experiments. All experimental procedures were approved by the Local Ethics Committee for Animal Experimentation in Bydgoszcz, Poland (Approval No. 49/2016). The study was conducted in compliance with the ARRIVE gudidelines. All animal handling methods were carried out in accordance with European Union Commission Recommendation of 18 June 2007 on guidelines for the accommodation and care of animals used for experimental and other scientific purposes. Before experiments, mice were randomized and divided into groups comprising six individuals. The mice were anaesthetized with inhaled 2–5% isoflurane. The skin on the dorsum was shaved and disinfected. After the skin was folded and raised cranially and caudally along the spine, the mouse was placed in a lateral position, and the folded skin was pierced with a 6.0 mm biopsy punch to make two through-and-through symmetrical wounds. Next, 10 µL of peptide hybrid hydrogel was applied onto each wound. Every gel was prepared in sterile conditions in biological safety cabinet, using sterile water to final concentration of 10 mg/ml (1%). Then the gels were incubated for 24 h allowing it to assemble. Control mice were treated with RADA16-I. The wounds were covered with a transparent Tegaderm TM dressing to protect the wound from outer environment of the cage and other animals. It was fastened with an adhesive plaster wrapped around the animal’s torso. The peptide hybrids were applied daily to the wounds for five consecutive days. The dressings were replaced daily in the first five days of the experiment and every second day until the end of the second week of the experiment. To measure the wound areas the wounds were photographed with a ruler placed next to the injury site. Wound areas were calculated using the computer-assisted image analysis program ImageJ[51].

HaCaT keratinocytes = test: LDH cytotoxicity assay, HaCaT; type: cell-based, human; conditions: 150 µg/ml, 48 h, 3 independent experiments, n = 12
Procedure: as §1, §2

[3] = Transmission electron microscopy of nanofibres; type: physicochemical; conditions: 1% gel in PBS diluted to 0.001%, uranyl acetate stain
Procedure: 1% gel solutions were prepared and incubated in PBS. The samples were then diluted to 0.001% concentration. A drop of solution was applied to a microcellulose membrane and stained with a 1.5% solution of uranyl acetate. The images were registered on a Tecnai Spirit BioTwin FEI Transmission Electron Microscope operating at 120 kV.

For `CC(=O)N[C@@H](CCCNC(=N)N)C(=O)N[C@@H](C)C(=O)N[C@@H](CC(=O)O)C(=O)N[C@@H](C)C(=O)N[C@@H](CCCNC(=N)N)C(=O)N[C@@H](C)C(=O)N[C@@H](CC(=O)O)C(=O)N[C@@H](C)C(=O)N[C@@H](CCCNC(=N)N)C(=O)N[C@@H](C)C(=O)N[C@@H](CC(=O)O)C(=O)N[C@@H](C)C(=O)N[C@@H](CCCNC(=N)N)C(=O)N[C@@H](C)C(=O)N[C@@H](CC(=O)O)C(=O)N[C@@H](C)C(=O)NCC(=O)NCC(=O)NCC(=O)N[C@@H](C)C(=O)N[C@@H](C)C(=O)N1CCC[C@H]1C(=O)N[C@H](C(=O)NCC(=O)NCC(=O)NCC(=O)N[C@@H](CCCCN)C(=O)NCC(=O)N[C@@H](Cc1c[nH]cn1)C(=O)N[C@@H](CCCCN)C(N)=O)C(C)C` [RADA-KGHK, Ac-(Arg-Ala-Asp-Ala)4-Gly-Gly-Gly-Ala-Ala-Pro-Val-Gly-Gly-Gly-Lys-Gly-His-Lys-NH2], the “cytotoxicity (LDH), slight effect” value (46BR.1N fibroblasts) was “ca. 15%”, the “magnitude of G’ compared with other gels” value (Rheology of hydrogels; cone-plate, frequency sweep, mean of three repeats) was “around one-tenth of these values” and the “shear strain above which the gel behaves like a liquid (G” > G’)” value (Rheology of hydrogels; strain sweep, ω = 6.28 rad/s) was “above 25%”. For the same compound, the “viability / dead cells on scaffold (CFSE / propidium iodide)” value [1] was “most dead cells were observed”, the “wound closure on day 7” value ([2]; BALB/c female mice, 6.0 mm punch dorsal wounds, 10 µL 1% hydrogel topically daily for five days, n = 6, SD) was 44.4 ± 4.9% and the “wound healing compared to RADA16-I” value ([2]; BALB/c mice, 1% hydrogel topically, day 2 up to day 14) was “Accelerated wound healing”. The “cytotoxicity (LDH), slight effect” value (HaCaT keratinocytes) was “ca. 15%” and the “fibre thickness (TEM)” value [3] was “about 3 nm”.
